This test has as its system uterine weight, immature rats. The test can be described thus: In vivo uterotropic activity. The note with it: 0.2 and 2 mg/kg, three days, S.C. On the set-up: species or system rat. How it is done:
Immature rats were treated with doses of 0.2 and 2 mg/kg 5,7,9-estratriene-3β,17β-diol for three days (S.C.) as well as additional groups (n=6) of rats treated with 0.5 μg ethinyl estradiol and vehicle as positive and negative controls, respectively.

Structures are written as SMILES.

Consider `C[C@]12CCc3c(ccc4c3CC[C@H](O)C4)[C@@H]1CC[C@@H]2O` [5,7,9-estratriene-3β,17β-diol], for which the uterine weight entry is listed as “uterine weight gains at both concentrations”.

Source of the values: patent US6693207B2, “B-ring estratriene diols” (Wyeth, priority 1997, dated 2004).
